Where two headings read alike, the source gives them in different places.
Legend:
Type in all cases: biochemical
p110α/p85α = p110α/p85α (Homo sapiens (Human), UniProt P42336); assay: PI 3-Kinase (human) HTRF assay, p110α/p85α
p110β/p85α = p110β/p85α (Homo sapiens (Human), UniProt P42338); assay: PI 3-Kinase (human) HTRF assay, p110β/p85α
Method: (§1) An exemplary system is PI 3-Kinase (human) HTRF™ Assay from Upstate. […] Briefly, the assay is a time resolved FRET assay that indirectly measures PIP3 product formed by the activity of a PI3-K. The kinase reaction is performed in a microtitre plate (e.g., a 384 well microtitre plate). The total reaction volume is approximately 20 ul per well. In the first step, each well receives 2 ul of test compound in 20% dimethylsulphoxide resulting in a 2% DMSO final concentration. Next, approximately 14.5 ul of a kinase/PIP2 mixture (diluted in 1× reaction buffer) is added per well for a final concentration of 0.25-0.3 ug/ml kinase and 10 μM PIP2. The plate is sealed and incubated for 15 minutes at room temperature. To start the reaction, 3.5 ul of ATP (diluted in 1× reaction buffer) is added per well for a final concentration of 10 μM ATP. The plate is sealed and incubated for 1 hour at room temperature. The reaction is stopped by adding 5 ul of Stop Solution per well and then 5 ul of Detection Mix is added per well. The plate is sealed, incubated for 1 hour at room temperature, and then read on an appropriate plate reader. Data is analyzed and IC50s are generated using GraphPad Prism 5. […] For PI3K α, β, δ, and γ, the nM concentration of inhibitor to reach IC50 is provided.

p110δ/p85α = p110δ/p85α (Homo sapiens (Human), UniProt O00329); assay: PI 3-Kinase (human) HTRF assay, p110δ/p85α
p110γ = p110γ (Homo sapiens (Human), UniProt P48736); assay: PI 3-Kinase (human) HTRF assay, p110γ
Method: as §1

[1] = in vitro, read-out: PI3K α IC50
[2] = in vitro, read-out: PI3K β IC50
[3] = in vitro, read-out: PI3K δ IC50
[4] = in vitro, read-out: PI3K γ IC50

p110β/p85α, sequence (P42338 whole entry): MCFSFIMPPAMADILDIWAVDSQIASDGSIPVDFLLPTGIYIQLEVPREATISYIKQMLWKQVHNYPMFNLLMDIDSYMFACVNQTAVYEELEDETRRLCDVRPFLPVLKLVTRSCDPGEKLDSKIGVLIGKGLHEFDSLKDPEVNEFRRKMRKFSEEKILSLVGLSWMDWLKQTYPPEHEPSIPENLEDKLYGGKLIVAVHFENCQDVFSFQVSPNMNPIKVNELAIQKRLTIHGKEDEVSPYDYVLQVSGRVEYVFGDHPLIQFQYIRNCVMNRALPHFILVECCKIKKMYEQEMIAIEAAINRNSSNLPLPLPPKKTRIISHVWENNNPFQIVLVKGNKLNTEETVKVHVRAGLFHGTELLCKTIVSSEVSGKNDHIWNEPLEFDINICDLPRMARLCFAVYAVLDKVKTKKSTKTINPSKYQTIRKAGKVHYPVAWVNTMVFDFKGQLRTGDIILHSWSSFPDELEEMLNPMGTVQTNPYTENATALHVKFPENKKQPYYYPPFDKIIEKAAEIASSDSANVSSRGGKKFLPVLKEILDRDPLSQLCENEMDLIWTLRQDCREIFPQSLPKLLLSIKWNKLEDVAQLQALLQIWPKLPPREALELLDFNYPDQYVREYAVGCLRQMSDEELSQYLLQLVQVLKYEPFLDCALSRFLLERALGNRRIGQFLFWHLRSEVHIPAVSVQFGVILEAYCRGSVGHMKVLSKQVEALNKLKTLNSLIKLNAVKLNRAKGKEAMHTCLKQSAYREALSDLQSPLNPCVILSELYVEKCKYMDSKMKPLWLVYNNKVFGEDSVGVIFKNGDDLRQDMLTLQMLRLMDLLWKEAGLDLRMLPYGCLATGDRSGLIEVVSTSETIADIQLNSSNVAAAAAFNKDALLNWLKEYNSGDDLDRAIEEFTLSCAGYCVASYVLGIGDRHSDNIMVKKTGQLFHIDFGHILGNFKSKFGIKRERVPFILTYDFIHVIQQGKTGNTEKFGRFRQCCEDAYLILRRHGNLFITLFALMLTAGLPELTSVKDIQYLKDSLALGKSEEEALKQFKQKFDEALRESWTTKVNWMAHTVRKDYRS
p110β/p85α, sequence (P27986 whole entry partner): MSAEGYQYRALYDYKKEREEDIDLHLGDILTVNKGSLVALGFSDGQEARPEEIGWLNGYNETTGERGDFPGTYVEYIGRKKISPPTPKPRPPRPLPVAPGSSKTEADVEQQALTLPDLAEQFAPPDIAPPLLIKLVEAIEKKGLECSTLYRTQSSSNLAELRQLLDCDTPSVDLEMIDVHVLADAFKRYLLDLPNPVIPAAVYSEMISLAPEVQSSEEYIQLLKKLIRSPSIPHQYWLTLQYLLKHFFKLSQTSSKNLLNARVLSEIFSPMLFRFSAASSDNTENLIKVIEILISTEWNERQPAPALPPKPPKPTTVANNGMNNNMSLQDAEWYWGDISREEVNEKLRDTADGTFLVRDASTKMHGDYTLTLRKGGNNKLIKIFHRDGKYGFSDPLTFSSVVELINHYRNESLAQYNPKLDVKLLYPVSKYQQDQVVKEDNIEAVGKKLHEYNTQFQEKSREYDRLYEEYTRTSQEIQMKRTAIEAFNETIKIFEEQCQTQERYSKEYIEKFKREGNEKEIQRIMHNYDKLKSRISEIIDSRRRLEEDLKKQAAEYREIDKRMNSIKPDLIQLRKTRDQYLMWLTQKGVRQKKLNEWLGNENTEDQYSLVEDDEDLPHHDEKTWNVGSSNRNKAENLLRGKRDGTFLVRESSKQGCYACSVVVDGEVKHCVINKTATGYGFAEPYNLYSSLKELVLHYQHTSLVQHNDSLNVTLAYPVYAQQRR
p110α/p85α, sequence (P42336 whole entry): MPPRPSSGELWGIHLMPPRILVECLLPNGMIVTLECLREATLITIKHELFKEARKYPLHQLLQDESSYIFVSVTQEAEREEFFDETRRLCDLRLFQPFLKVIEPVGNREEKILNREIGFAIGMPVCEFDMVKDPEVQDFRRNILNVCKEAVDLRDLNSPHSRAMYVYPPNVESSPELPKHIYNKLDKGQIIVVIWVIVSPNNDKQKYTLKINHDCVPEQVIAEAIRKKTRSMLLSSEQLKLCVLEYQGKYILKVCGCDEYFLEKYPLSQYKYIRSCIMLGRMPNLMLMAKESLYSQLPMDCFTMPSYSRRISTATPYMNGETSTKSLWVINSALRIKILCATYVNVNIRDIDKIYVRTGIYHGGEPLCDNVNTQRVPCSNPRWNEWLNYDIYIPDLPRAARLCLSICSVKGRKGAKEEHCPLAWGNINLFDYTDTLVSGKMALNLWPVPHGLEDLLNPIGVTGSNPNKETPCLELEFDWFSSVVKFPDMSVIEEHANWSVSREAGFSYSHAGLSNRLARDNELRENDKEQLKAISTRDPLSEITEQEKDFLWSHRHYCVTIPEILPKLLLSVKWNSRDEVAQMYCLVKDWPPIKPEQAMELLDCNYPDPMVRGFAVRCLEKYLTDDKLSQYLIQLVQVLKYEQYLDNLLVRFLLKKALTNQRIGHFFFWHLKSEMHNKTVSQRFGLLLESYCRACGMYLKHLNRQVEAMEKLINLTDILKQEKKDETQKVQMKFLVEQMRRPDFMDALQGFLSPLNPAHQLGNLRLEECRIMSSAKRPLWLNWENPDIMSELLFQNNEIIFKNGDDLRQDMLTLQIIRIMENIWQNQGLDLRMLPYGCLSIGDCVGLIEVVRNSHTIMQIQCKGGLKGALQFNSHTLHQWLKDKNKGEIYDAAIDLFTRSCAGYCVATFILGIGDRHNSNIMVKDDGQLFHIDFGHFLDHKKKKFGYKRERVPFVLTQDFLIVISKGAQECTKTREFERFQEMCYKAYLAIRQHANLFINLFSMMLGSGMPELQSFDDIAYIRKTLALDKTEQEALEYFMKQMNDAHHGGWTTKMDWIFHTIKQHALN
p110α/p85α, sequence (P27986 whole entry partner): as the sequence (P27986 whole entry partner) above
p110γ, sequence (P48736 whole entry): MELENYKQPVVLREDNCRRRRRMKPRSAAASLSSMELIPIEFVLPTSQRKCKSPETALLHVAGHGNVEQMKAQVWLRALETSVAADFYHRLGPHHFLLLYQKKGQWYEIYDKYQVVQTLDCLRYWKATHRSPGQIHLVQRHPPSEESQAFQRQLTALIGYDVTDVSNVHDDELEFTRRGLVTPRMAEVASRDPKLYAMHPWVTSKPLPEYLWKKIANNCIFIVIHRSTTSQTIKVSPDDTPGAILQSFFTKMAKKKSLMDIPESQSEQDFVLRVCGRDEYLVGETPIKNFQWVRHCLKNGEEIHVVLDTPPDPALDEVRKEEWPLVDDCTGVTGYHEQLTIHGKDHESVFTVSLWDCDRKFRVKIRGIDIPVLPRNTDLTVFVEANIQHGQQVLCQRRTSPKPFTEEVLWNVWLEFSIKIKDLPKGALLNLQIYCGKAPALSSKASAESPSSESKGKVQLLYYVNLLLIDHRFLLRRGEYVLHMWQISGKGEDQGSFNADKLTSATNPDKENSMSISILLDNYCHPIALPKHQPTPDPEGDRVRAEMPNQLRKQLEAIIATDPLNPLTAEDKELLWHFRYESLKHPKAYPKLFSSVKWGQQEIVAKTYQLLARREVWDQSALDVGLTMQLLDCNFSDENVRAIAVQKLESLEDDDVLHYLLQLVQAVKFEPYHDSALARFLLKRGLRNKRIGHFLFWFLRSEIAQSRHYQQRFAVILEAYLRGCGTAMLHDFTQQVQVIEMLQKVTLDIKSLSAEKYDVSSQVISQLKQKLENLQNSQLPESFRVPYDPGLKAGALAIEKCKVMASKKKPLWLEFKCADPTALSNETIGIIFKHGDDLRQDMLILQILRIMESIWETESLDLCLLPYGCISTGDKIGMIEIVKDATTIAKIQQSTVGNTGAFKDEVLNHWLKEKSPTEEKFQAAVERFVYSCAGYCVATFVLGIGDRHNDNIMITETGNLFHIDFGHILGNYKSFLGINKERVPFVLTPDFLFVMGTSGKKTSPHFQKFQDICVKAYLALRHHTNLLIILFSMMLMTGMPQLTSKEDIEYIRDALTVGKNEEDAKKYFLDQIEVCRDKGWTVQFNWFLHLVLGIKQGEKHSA
p110δ/p85α, sequence (O00329 whole entry): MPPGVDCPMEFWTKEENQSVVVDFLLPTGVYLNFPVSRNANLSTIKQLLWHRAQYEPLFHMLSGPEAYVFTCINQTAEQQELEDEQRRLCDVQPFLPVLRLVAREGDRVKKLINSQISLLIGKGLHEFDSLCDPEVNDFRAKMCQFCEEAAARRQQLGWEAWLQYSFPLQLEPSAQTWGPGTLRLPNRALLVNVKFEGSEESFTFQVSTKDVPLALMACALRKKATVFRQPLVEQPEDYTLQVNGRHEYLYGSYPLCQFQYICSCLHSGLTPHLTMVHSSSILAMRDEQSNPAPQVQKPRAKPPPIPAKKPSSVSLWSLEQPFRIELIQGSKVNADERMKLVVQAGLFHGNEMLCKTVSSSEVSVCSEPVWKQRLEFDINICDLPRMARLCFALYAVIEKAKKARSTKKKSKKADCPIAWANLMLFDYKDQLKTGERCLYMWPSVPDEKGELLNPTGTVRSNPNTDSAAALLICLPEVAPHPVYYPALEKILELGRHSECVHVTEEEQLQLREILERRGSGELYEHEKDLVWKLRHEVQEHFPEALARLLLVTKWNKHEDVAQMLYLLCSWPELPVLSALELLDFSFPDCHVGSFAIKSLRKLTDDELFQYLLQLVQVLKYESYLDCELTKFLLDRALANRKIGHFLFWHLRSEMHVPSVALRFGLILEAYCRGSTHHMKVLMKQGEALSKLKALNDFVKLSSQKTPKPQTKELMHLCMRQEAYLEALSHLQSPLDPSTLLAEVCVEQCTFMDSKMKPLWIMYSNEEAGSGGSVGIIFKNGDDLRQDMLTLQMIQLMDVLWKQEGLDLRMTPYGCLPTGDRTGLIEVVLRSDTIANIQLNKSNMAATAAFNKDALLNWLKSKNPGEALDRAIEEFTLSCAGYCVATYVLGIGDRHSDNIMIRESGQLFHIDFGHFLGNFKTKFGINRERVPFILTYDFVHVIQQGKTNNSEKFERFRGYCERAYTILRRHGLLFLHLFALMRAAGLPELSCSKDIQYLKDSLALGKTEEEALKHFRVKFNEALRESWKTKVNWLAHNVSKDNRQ
p110δ/p85α, sequence (P27986 whole entry partner): as the sequence (P27986 whole entry partner) above

In the case of `CN1CCN(C2CN(c3cnc4ccc(-c5ccc6oc(N)nc6c5)cc4n3)C2)CC1=O` [compound 323], the IC50 (p110α/p85α; [1]) is reported as < 100 nM, the IC50 (p110β/p85α; [2]) is reported as < 10000 nM and the IC50 (p110δ/p85α; [3]) is reported as < 10000 nM. For the same compound, the IC50 (p110γ; [4]) was < 1000 nM.
For `CC(=O)N1CCC(Nc2cnc3ccc(-c4ccc5oc(N)nc5c4)cc3n2)CC1` [compound 82], the IC50 (p110α/p85α; read-out: PI3K α IC50) was < 100 nM, the IC50 (p110β/p85α; read-out: PI3K β IC50) was < 10000 nM and the IC50 (p110δ/p85α; read-out: PI3K δ IC50) was < 100 nM. The IC50 (p110γ; read-out: PI3K γ IC50) was < 100 nM.
With `CCN(CC)C1CN(c2cnc3ccc(-c4ccc5oc(N)nc5c4)cc3n2)C1` [compound 324] the IC50 (p110α/p85α; [1]) was < 100 nM, the IC50 (p110β/p85α; [2]) was < 10000 nM and the IC50 (p110δ/p85α; [3]) was < 10000 nM. The IC50 (p110γ; [4]) was < 1000 nM.
In the case of `Nc1nsc2cc(-c3ccc4nccc(-c5ccncc5)c4c3)ccc12` [compound 13], the IC50 (p110α/p85α; read-out: PI3K α IC50) is reported as < 100 nM, the IC50 (p110β/p85α; read-out: PI3K β IC50) is reported as < 1000 nM and the IC50 (p110δ/p85α; read-out: PI3K δ IC50) is reported as < 1000 nM. For the same compound, the IC50 (p110γ; read-out: PI3K γ IC50) was < 1000 nM.
With `CS(=O)(=O)N1CCN(C2CN(c3cnc4ccc(-c5ccc6oc(N)nc6c5)cc4n3)C2)CC1` [compound 328] the IC50 (p110α/p85α; [1]) was < 100 nM, the IC50 (p110β/p85α; [2]) was < 10000 nM and the IC50 (p110δ/p85α; [3]) was < 10000 nM. The IC50 (p110γ; [4]) was < 10000 nM.
In the case of `CS(=O)(=O)CCN1CCC(NC(=O)c2cnc3ccc(-c4ccc5oc(N)nc5c4)cn23)CC1` [compound 199], the IC50 (p110α/p85α; [1]) is reported as < 100 nM, the IC50 (p110β/p85α; [2]) is reported as < 10000 nM and the IC50 (p110δ/p85α; [3]) is reported as < 100 nM. For the same compound, the IC50 (p110γ; [4]) was < 100 nM.
With `Nc1nc2cc(-c3ccc4ncc(C(=O)N5CCOCC5)n4c3)cc(F)c2o1` [compound 360] the IC50 (p110α/p85α; [1]) was < 100 nM, the IC50 (p110β/p85α; [2]) was < 1000 nM and the IC50 (p110δ/p85α; [3]) was < 10000 nM. For the same compound, the IC50 (p110γ; [4]) was < 100 nM.
With `Nc1nc2cc(-c3ccn4ncc(C(=O)N5CCC(N6CCOCC6)CC5)c4c3)ccc2o1` [compound 398] the IC50 (p110α/p85α; read-out: PI3K α In Vitro IC50) was < 1000 nM, the IC50 (p110β/p85α; read-out: PI3K β In Vitro IC50) was < 10000 nM and the IC50 (p110δ/p85α; read-out: PI3K δ In Vitro IC50) was < 10000 nM. The IC50 (p110γ; read-out: PI3K γ In Vitro IC50) was < 10000 nM.
In the case of `CN1CCN(C(=O)C2CN(c3cnc4ccc(-c5ccc6oc(N)nc6c5)cc4n3)C2)CC1` [compound 253], the IC50 (p110β/p85α; [2]) is reported as < 10000 nM, the IC50 (p110δ/p85α; [3]) is reported as < 10000 nM and the IC50 (p110γ; [4]) is reported as < 10000 nM.
With `CN(C)[C@H]1CCN(c2cnc3ccc(-c4ccc5oc(N)nc5c4)cc3n2)C1` [compound 382] the IC50 (p110α/p85α; [1]) was < 100 nM, the IC50 (p110β/p85α; [2]) was < 1000 nM and the IC50 (p110δ/p85α; [3]) was < 10000 nM. The IC50 (p110γ; [4]) was < 1000 nM.
For `CC(=O)NC1CCN(C(=O)c2cnc3ccc(-c4ccc5oc(N)nc5c4)cn23)CC1` [compound 147], the IC50 (p110α/p85α; read-out: PI3K α IC50) was < 1000 nM, the IC50 (p110β/p85α; read-out: PI3K β IC50) was < 10000 nM and the IC50 (p110δ/p85α; read-out: PI3K δ IC50) was < 10000 nM. The IC50 (p110γ; read-out: PI3K γ IC50) was < 10000 nM.
`Nc1nc2cc(-c3ccc4ncc(N5CC(N6CCOCC6)C5)nc4c3)cc(Cl)c2o1` [compound 358] was tested, and the IC50 (p110α/p85α; [1]) was < 100 nM, the IC50 (p110β/p85α; [2]) was < 1000 nM and the IC50 (p110δ/p85α; [3]) was < 1000 nM. The IC50 (p110γ; [4]) was < 1000 nM.
For `Nc1nc2cc(-c3ccc4ncc(N5CCNC(C(F)F)C5)nc4c3)ccc2o1` (stereo not drawn) [compound 413], the IC50 (p110α/p85α; read-out: PI3K α In Vitro IC50) was < 100 nM, the IC50 (p110β/p85α; read-out: PI3K β In Vitro IC50) was < 1000 nM and the IC50 (p110δ/p85α; read-out: PI3K δ In Vitro IC50) was < 10000 nM. The IC50 (p110γ; read-out: PI3K γ In Vitro IC50) was < 1000 nM.
With `Cc1c(-c2ccc3oc(N)nc3c2)ccc2ncc(N3CCN[C@@H](C)C3)nc12` [compound 374] the IC50 (p110α/p85α; [1]) was < 1000 nM, the IC50 (p110β/p85α; [2]) was < 100 nM and the IC50 (p110δ/p85α; [3]) was < 10000 nM.
For `CC1(C)CN(c2cnc3ccc(-c4ccc5oc(N)nc5c4)cc3n2)CCN1` [compound 336], the IC50 (p110α/p85α; [1]) was < 1000 nM, the IC50 (p110β/p85α; [2]) was < 1000 nM and the IC50 (p110δ/p85α; [3]) was < 10000 nM.
`Nc1nc2cc(-c3ccc4nccc(-c5cn[nH]c5)c4c3)ccc2o1` [compound 20] was tested, and the IC50 (p110α/p85α; read-out: PI3K α IC50) was < 100 nM, the IC50 (p110β/p85α; read-out: PI3K β IC50) was < 100 nM and the IC50 (p110δ/p85α; read-out: PI3K δ IC50) was < 100 nM.
With `CN1CCC(Oc2ncnc3ccc(-c4ccc5oc(N)nc5c4)cc23)CC1` [compound 34] the IC50 (p110α/p85α; read-out: PI3K α IC50) was < 100 nM, the IC50 (p110δ/p85α; read-out: PI3K δ IC50) was < 1000 nM and the IC50 (p110γ; read-out: PI3K γ IC50) was < 100 nM.
In the case of `Nc1nc2cc(-c3ccc4ncc(-c5cn[nH]c5)n4c3)ccc2o1` [compound 38], the IC50 (p110α/p85α; read-out: PI3K α IC50) is reported as < 100 nM, the IC50 (p110δ/p85α; read-out: PI3K δ IC50) is reported as < 100 nM and the IC50 (p110γ; read-out: PI3K γ IC50) is reported as < 100 nM.
For `Nc1nc2cc(-c3ccc4ncc(C(=O)N5CC(n6cccn6)C5)n4c3)ccc2o1` [compound 479], the IC50 (p110α/p85α; read-out: PI3K α In Vitro IC50) was < 100 nM, the IC50 (p110δ/p85α; read-out: PI3K δ In Vitro IC50) was < 10000 nM and the IC50 (p110γ; read-out: PI3K γ In Vitro IC50) was < 1000 nM.
For `O=C(c1cnc2ccc(-c3cnc4[nH]ncc4c3)cn12)N1CCOCC1` [compound 492], the IC50 (p110β/p85α; read-out: PI3K β In Vitro IC50) was < 10000 nM, the IC50 (p110δ/p85α; read-out: PI3K δ In Vitro IC50) was < 10000 nM and the IC50 (p110γ; read-out: PI3K γ In Vitro IC50) was < 10000 nM.
With `O=C(c1cnc2ccc(-c3cncc(NS(=O)(=O)c4ccc(F)cc4F)c3)cn12)N1CCOCC1` [compound 425] the IC50 (p110α/p85α; read-out: PI3K α In Vitro IC50) was < 100 nM, the IC50 (p110δ/p85α; read-out: PI3K δ In Vitro IC50) was < 1000 nM and the IC50 (p110γ; read-out: PI3K γ In Vitro IC50) was < 100 nM.
`Nc1nc2cc(-c3ccc4ncc(N5CC(C(=O)N6CCOCC6)C5)nc4c3)ccc2o1` [compound 252] was tested, and the IC50 (p110β/p85α; [2]) was < 10000 nM, the IC50 (p110δ/p85α; [3]) was < 10000 nM and the IC50 (p110γ; [4]) was < 10000 nM.
With `Nc1nc2ccc(-c3ccc4ncc(C(=O)N5CCOCC5)n4c3)cc2s1` [compound 125] the IC50 (p110α/p85α; read-out: PI3K α IC50) was < 1000 nM, the IC50 (p110δ/p85α; read-out: PI3K δ IC50) was < 10000 nM and the IC50 (p110γ; read-out: PI3K γ IC50) was < 1000 nM.
For `COc1ncc(-c2ccc3ncc(C(=O)N4CCOCC4)n3c2)c2cn[nH]c12` [compound 517], the IC50 (p110α/p85α; read-out: PI3K α In Vitro IC50) was < 1000 nM, the IC50 (p110δ/p85α; read-out: PI3K δ In Vitro IC50) was < 10000 nM and the IC50 (p110γ; read-out: PI3K γ In Vitro IC50) was < 10000 nM.
With `CN1CCN(c2cc(-c3cnc4ccc(-c5ccc6oc(N)nc6c5)cn34)ccn2)CC1` [compound 43] the IC50 (p110α/p85α; read-out: PI3K α IC50) was < 100 nM, the IC50 (p110δ/p85α; read-out: PI3K δ IC50) was < 100 nM and the IC50 (p110γ; read-out: PI3K γ IC50) was < 100 nM.
For `CN1CCN(c2cc(-c3ccnc4ccc(-c5ccc6oc(N)nc6c5)cc34)ccn2)CC1` [compound 30], the IC50 (p110α/p85α; read-out: PI3K α IC50) was < 100 nM, the IC50 (p110δ/p85α; read-out: PI3K δ IC50) was < 100 nM and the IC50 (p110γ; read-out: PI3K γ IC50) was < 100 nM.
